Data from patent publication US20190053489A1, “ANTIMICROBIAL COMPOSITION” (NATIONAL UNIVERSITY CORPORATION TOKYO MEDICAL AND DENTAL …, priority 2016, published 2019).

Legend:
[1] = tested on: Mycobacterium avium Chester JCM15429; assay: Proliferation suppression against pulmonary MAC in a diluted medium (OD600); type: cell-based
Description: This test employed Mycobacterium avium Chester JCM15429, and this microbe strain was cultured in a Middlebrook 7H9 medium at 37° C. for 2 weeks. The cultured microbial solution was collected by centrifugation (3000 rpm, 10 minutes), suspended with sterilized water, and then diluted with sterilized water so that the optical density would satisfy OD600 =1.0. The resultant was diluted 2000 times (corresponding to 10^6 CFU/ml) to prepare a reaction microbial solution.
Each of the Middlebrook 7H9 test medium samples was added with 100 μl of reaction microbial solution and was statically cultured under the condition of 37° C. Here, the Middlebrook 7H9 test medium samples were prepared using 10 ml of 1/2.5 Middlebrook 7H9 medium added with
(1) 10 ml of sterilized water, (2) 10 ml of the lysozyme-chitosan complex with a concentration of 0.002% (the concentration after addition was […]), (3) 10 ml of the lysozyme-chitosan complex with a concentration of 0.02% (the concentration after addition was 0.01%), (4) 10 ml of the lysozyme-chitosan complex with a concentration of 0.2% (the concentration after addition was 0.1%), (5) 10 ml of lysozyme alone with a concentration of 0.1% (the concentration after addition was 0.05%), (6) 10 ml of chitosan alone with a concentration of 0.1% (the concentration after addition was 0.05%), and (7) 10 ml of the mixture of lysozyme and chitosan with a concentration of 0.1% (the concentration of each after addition was 0.05%).
After that, 3 ml was extracted at time intervals (0, 5, 7, and 12 days), and the optical density was measured at an absorption wavelength of 600 nm. In addition, 100 μl was extracted when necessary and seeded on the Middlebrook 7H10 agar medium, and the number of colonies produced was observed.

[2] = tested on: Micrococcus luteus bacteria; assay: Heat resistance evaluation by bacteriolytic test; type: physicochemical; conditions: 80° C. for 2 hours; ΔOD at 10 minutes with vs without heating; complex 5%, lysozyme 2.5% aqueous solution; FIG. 6(D)
Description: This test is a bacteriolytic test using Micrococcus luteus bacteria being lysozyme-sensitive bacteria. Note that the bacteriolytic activity is an activity specific to lysozyme. Lysozyme is a protein relatively stable against heat. However, it is known that this activity generally decreases considerably for lysozyme heated at 80° C. for 30 minutes.
This test employed an aqueous solution of the lysozyme-chitosan complex with a concentration of 5%, an aqueous solution of lysozyme with a concentration of 2.5%, and an aqueous solution of the mixture of lysozyme and chitosan with a concentration of […]. In addition, Micrococcus luteus bacteria manufactured by Wako Pure Chemical Industries, Ltd. were used as the use bacteria.
First, 1 g of Micrococcus luteus bacteria was weighed on the day before the test, added to 100 ml of physiological saline, and stirred overnight at 4° C. […]
In an optical density meter, 2800 μl of the test microbial solution was set to record OD (0-1) immediately before the addition of the sample. […] Since OD increased here, the highest value OD (0-2) was recorded.
Timer measurement was started after the addition of the sample to record OD at the time of 2, 4, 6, 8, and 10 minutes passed. Each test was carried out twice, and the average was calculated.
With OD for (0-2) being OD at the time of the start, Δoptical density (AOD) at each point was calculated. […]

[3] = tested on: Pseudomonas aeruginosa NBRC 13275; assay: Proliferation suppression against pseudomonas aeruginosa NBRC 13275 in a standard medium (colony count method); type: cell-based; conditions: standard TSB medium; for ratio of the number of pseudomonas aeruginosa (NBRC 13275) colonies produced to the control: 6 hours later, FIG. 11
Excerpt: This test employed Pseudomonas aeruginosa NBRC 13275 or PAO 1, and other procedures were the same as those of [Example 5] described earlier.
Note that the results of FIG. 9 are each the average value of the values obtained by carrying out the colony count method three times and that the results of FIG. 10 are each the average value of the values obtained by carrying out the colony count method five times.
Note that the results of FIG. 11 are each the average value obtained with three replicate samples.

MRSA = assay: Observation of morphological change in MRSA by electron microscope; type: cell-based, Methicillin-Resistant Staphylococcus Aureus (MRSA)
Description: First, the morphological change in MRSA was observed by using a scanning electron microscope. This observation with a scanning electron microscope was carried out as follows: osmium coating (4 nm) was performed as the conductive treatment, and a low-acceleration ultra-high resolution scanning electron microscope (SU 9000 manufactured by Hitachi High-Technologies Corporation (accelerating voltage: 1 kV)) was used. In addition, the samples were MRSA added with physiological saline and MRSA added with a lysozyme-chitosan complex with a concentration of 0.2% by mass.
Next, the morphological change in MRSA was observed by using a transmission electron microscope. This observation with a transmission electron microscope was carried out as follows: the sample was sliced in 50 nm with a diamond knife as the pretreatment and was stained with uranium acetate and lead citrate, and a transmission electron microscope (JEM-1400 manufactured by JEOL Ltd.) was used. In addition, the samples were MRSA added with physiological saline and MRSA added with a lysozyme-chitosan complex with a concentration of 0.2% by mass.
Observation was carried out with a scanning electron microscope for the morphological changes in MRSA and pseudomonas aeruginosa treated with the lysozyme-chitosan complex, lysozyme alone, chitosan alone, and the mixture of lysozyme and chitosan (treatment time: 2 hours). This observation with a scanning electron microscope was carried out in the same manner as Example 8 described above: osmium coating (4 nm) was performed as the conductive treatment, and a low-acceleration ultra-high resolution scanning electron microscope (SU 9000 manufactured by Hitachi High-Technologies Corporation (accelerating voltage: 1 kV)) was used. In addition, the samples were MRSA or pseudomonas aeruginosa added with physiological saline, a lysozyme-chitosan complex with a concentration of 0.1% by mass, lysozyme of 0.05% by mass, chitosan of 0.05% by mass, and a mixture of lysozyme and chitosan, each with 0.05% by mass.

## lysozyme-chitosan complex: complex of lysozyme and water-soluble chitosan (molecular weight 14000 Da) bound to each other through the Maillard reaction
[1]; Middlebrook 7H9 test medium further added with 10 mM phosphate buffer (pH 7.0), FIG. 5
  proliferation suppression effect against pulmonary MAC over 7 days, medium with phosphate buffer: marked proliferation suppression effect
[1]; diluted Middlebrook 7H9 medium, complex 0.0010, 0.01%, 0.1% after addition, FIG. 3
  proliferation suppression effect against pulmonary MAC, classified by concentration: increased as the concentration of the lysozyme-chitosan complex increased
[1]; diluted Middlebrook 7H9 medium, complex 0.1% vs lysozyme, chitosan, mixture 0.05% each, FIG. 4
  proliferation suppression effect against pulmonary MAC over 7 days: marked proliferation suppression effect
[2]
  residual activity (bacteriolytic) after heating treatment: 91.9%
[3]; colony count 6 hours later, complex 0.2%, others 0.1%, FIG. 9
  proliferation suppression effect against NBRC 13275: marked improvement effect compared to lysozyme alone, chitosan alone, and the mixture of lysozyme and chitosan
[3]; complex 0.2%
  ratio of the number of pseudomonas aeruginosa (NBRC 13275) colonies produced to the control: ~0%
[3]; complex 0.5%
  ratio of the number of pseudomonas aeruginosa (NBRC 13275) colonies produced to the control: ~0%
MRSA; complex 0.1% by mass, lysozyme 0.05%, chitosan 0.05%, mixture each 0.05%, FIG. 16
  morphological change in MRSA, scanning electron microscope, treatment time 2 hours: the form of MRSA has changed
MRSA; complex 0.2% by mass, FIG. 13
  morphological change in MRSA, scanning electron microscope: fibrous adhesions have appeared on the outer surface of MRSA
MRSA; complex 0.2% by mass, FIG. 14
  morphological change in MRSA, transmission electron microscope: fibrous structures (DNA) inside MRSA have disappeared
